# Laboratory results published in US20020035061A1, “COMPOSITIONS AND METHODS FOR TREATING INFECTIONS USING CATIONIC PEPTIDES ALONE OR IN COMBINATION WITH ANTIBIOTICS” (priority 1996, published 2002).
# Several values for one entry are separate records, joined by “and”; a condition that tells them apart may be missing. Equal values may be shown once. Read-outs that look alike come from different tables or passages of the source.
# Key:
# Experiment in all cases: microbe, parasite or virus in culture
# Assay type in all cases: cell-based
# [1] = system: microorganisms with acquired resistance
# [2] = system: inherently resistant microorganisms; details: for MIC: Staphylococcus aureus, MRSA
# [3] = system: bacterial isolates
# [4] = Acinetobacter calcoaceticus, read-out: Piperacillin MIC Alone, A. calcoaceticus 2
# [5] = Acinetobacter calcoaceticus, read-out: Piperacillin MIC Alone, A. calcoaceticus 7
# [6] = Enterobacter cloacae, read-out: Piperacillin MIC Alone, E. cloacae 9
# [7] = Enterobacter cloacae, read-out: Piperacillin MIC Alone, E. cloacae 10
# [8] = Enterobacter cloacae, read-out: Piperacillin MIC Alone, E. cloacae 13
# [9] = Enterobacter cloacae, read-out: Piperacillin MIC Alone, E. cloacae 16
# [10] = Enterobacter cloacae, read-out: Piperacillin MIC Alone, E. cloacae 17
# [11] = Escherichia coli, read-out: Piperacillin MIC Alone, E. coli 1
# [12] = Haemophilus influenzae, read-out: Piperacillin MIC Alone, H. influenzae 1
# [13] = Pseudomonas aeruginosa, read-out: Piperacillin MIC Alone, P. aeruginosa 7
# [14] = Pseudomonas aeruginosa, read-out: Piperacillin MIC Alone, P. aeruginosa 15
# [15] = Pseudomonas aeruginosa, read-out: Piperacillin MIC Alone, P. aeruginosa 22
# [16] = Serratia marcescens, read-out: Piperacillin MIC Alone, S. marcescens SB1
# [17] = Stenotrophomonas maltophilia, read-out: Piperacillin MIC Alone, S. maltophilia 2
# [18] = Stenotrophomonas maltophilia, read-out: Piperacillin MIC Alone, S. maltophilia 3
# [19] = Stenotrophomonas maltophilia, read-out: Piperacillin MIC Alone, S. maltophilia 11
# [20] = Stenotrophomonas maltophilia, read-out: Piperacillin MIC Alone, S. maltophilia 14
# [21] = Stenotrophomonas maltophilia, read-out: Piperacillin MIC Alone, S. maltophilia 34
# [22] = Stenotrophomonas maltophilia, read-out: Piperacillin MIC Alone, S. maltophilia 35
smiles,measurement,setting,value
CCN1CCN(C(=O)N[C@@H](C(=O)N[C@@H]2C(=O)N3[C@@H]2SC(C)(C)[C@@H]3C(=O)O)c2ccccc2)C(=O)C1=O [Piperacillin],MIC,[1]; [4],> 512 µg/mL
same,MIC,[1]; [5],32 µg/mL
same,MIC,[1]; [6],> 128 µg/mL
same,MIC,[1]; [7],> 128 µg/mL
same,MIC,[1]; [8],128 µg/mL
same,MIC,[1]; [9],> 512 µg/mL
same,MIC,[1]; [10],> 512 µg/mL
same,MIC,"[1]; Enterobacter cloacae, read-out: Piperacillin MIC Alone, E. cloacae 19",64 µg/mL
same,MIC,[1]; [11],> 128 µg/mL
same,Piperacillin MIC Alone,[1]; H. influenzae 1,32 µg/mL
same,MIC,[1]; [12],64 µg/mL
same,Piperacillin MIC Alone,[1]; P. aeruginosa 7,>128 µg/mL
same,Piperacillin MIC Alone,[1]; P. aeruginosa 23,>128 µg/mL and 256 µg/mL
same,MIC comb. (antibiotic agent),"[1]; P. aeruginosa, with MBI 27",64 µg/mL
same,MIC comb. (antibiotic agent),"[1]; P. aeruginosa, with MBI 29",64 µg/mL
same,MIC,"[1]; Pseudomonas aeruginosa, read-out: MIC alone (antibiotic agent), P. aeruginosa",128 µg/mL
same,MIC,[1]; [13],128 µg/mL
same,MIC,"[1]; Pseudomonas aeruginosa, read-out: Piperacillin MIC Alone, P. aeruginosa 12",> 128 µg/mL
same,MIC,[1]; [14],> 128 µg/mL
same,MIC,[1]; [15],> 128 µg/mL
same,MIC,"[1]; Pseudomonas aeruginosa, read-out: Piperacillin MIC Alone, P. aeruginosa 23",128 µg/mL
same,MIC,"[1]; Pseudomonas aeruginosa, read-out: Piperacillin MIC Alone, P. aeruginosa 24",> 512 µg/mL
same,MIC,"[1]; Pseudomonas aeruginosa, read-out: Piperacillin MIC Alone, P. aeruginosa 26",128 µg/mL
same,MIC comb. (antibiotic agent),"[1]; S. aureus, with MBI 27",64 µg/mL
same,Piperacillin MIC Alone,[1]; S. maltophilia 2,64 µg/mL
same,Piperacillin MIC Alone,[1]; S. maltophilia 4,128 µg/mL
same,Piperacillin MIC Alone,[1]; S. maltophilia 35,>512 µg/mL
same,MIC comb. (antibiotic agent),"[1]; S. maltophilia, with MBI 26",16 µg/mL
same,MIC,[1]; [16],64 µg/mL
same,MIC,"[1]; Staphylococcus aureus, read-out: MIC alone (antibiotic agent), S. aureus",128 µg/mL
same,MIC,"[1]; Stenotrophomonas maltophilia, read-out: MIC alone (antibiotic agent), S. maltophilia",> 512 µg/mL
same,MIC,[1]; [17],32 µg/mL
same,MIC,[1]; [18],64 µg/mL
same,MIC,"[1]; Stenotrophomonas maltophilia, read-out: Piperacillin MIC Alone, S. maltophilia 4",64 µg/mL
same,MIC,[1]; [19],32 µg/mL
same,MIC,[1]; [20],128 µg/mL
same,MIC,[1]; [21],> 512 µg/mL
same,MIC,[1]; [22],> 256 µg/mL
same,MIC,"[1]; Stenotrophomonas maltophilia, read-out: Piperacillin MIC Alone, S. maltophilia 41",> 512 µg/mL
same,Piperacillin MIC + Peptide,"[2]; S. aureus MRSA, peptide MBI 11F3CN",4 µg/mL
same,MIC,"[2]; read-out: Piperacillin MIC + Peptide, S. aureus MRSA, peptide MBI 11B7CN",0.5 µg/mL
same,MIC,"[2]; read-out: Piperacillin MIC + Peptide, S. aureus MRSA, peptide MBI 11D18CN",2 µg/mL
same,MIC,"[2]; read-out: Piperacillin MIC + Peptide, S. aureus MRSA, peptide MBI 11E3CN",2 µg/mL
same,MIC,"[2]; read-out: Piperacillin MIC + Peptide, S. aureus MRSA, peptide MBI 11F3CN",2 µg/mL
same,MIC,"[2]; read-out: Piperacillin MIC + Peptide, S. aureus MRSA, peptide MBI 11F4CN",4 µg/mL
same,MIC,"[2]; read-out: Piperacillin MIC + Peptide, S. aureus MRSA, peptide MBI 11G7CN",0.5 µg/mL
same,MIC,"[2]; read-out: Piperacillin MIC + Peptide, S. aureus MRSA, peptide MBI 21A2",0.5 µg/mL
same,MIC,"[2]; read-out: Piperacillin MIC + Peptide, S. aureus MRSA, peptide MBI 26",0.5 µg/mL
same,MIC,"[2]; read-out: Piperacillin MIC + Peptide, S. aureus MRSA, peptide MBI 29",4 µg/mL
same,MIC,"[2]; read-out: Piperacillin MIC Alone, S. aureus MRSA",128 µg/mL
same,Piperacillin MIC Alone,[3]; A. calcoaceticus 3,128 µg/mL
same,MIC,[3]; [4],> 512 µg/mL
same,MIC,"[3]; Acinetobacter calcoaceticus, read-out: Piperacillin MIC Alone, A. calcoaceticus 3",64 µg/mL
same,MIC,[3]; [5],32 µg/mL
same,MIC,"[3]; Acinetobacter calcoaceticus, read-out: Piperacillin MIC Alone, A. calcoaceticus 8",64 µg/mL
same,MIC,"[3]; Enterobacter cloacae, read-out: Piperacillin MIC Alone, E. cloacae 6",> 128 µg/mL
same,MIC,[3]; [6],> 128 µg/mL
same,MIC,[3]; [7],> 128 µg/mL
same,MIC,[3]; [8],128 µg/mL
same,MIC,[3]; [9],> 512 µg/mL
same,MIC,[3]; [10],> 512 µg/mL
same,MIC,[3]; [11],> 128 µg/mL
same,Piperacillin MIC Alone,[3]; H. influenzae 1,32 µg/mL
same,MIC,[3]; [12],64 µg/mL
same,MIC,"[3]; Haemophilus influenzae, read-out: Piperacillin MIC Alone, H. influenzae 3",0.5 µg/mL
same,MIC,"[3]; Haemophilus influenzae, read-out: Piperacillin MIC Alone, H. influenzae SB1",0.5 µg/mL
same,Piperacillin MIC Alone,[3]; P. aeruginosa 7,128 µg/mL
same,Piperacillin MIC Alone,[3]; P. aeruginosa 41,32 µg/mL
same,MIC,[3]; [13],> 128 µg/mL
same,MIC,[3]; [14],> 128 µg/mL
same,MIC,[3]; [15],> 128 µg/mL
same,MIC,"[3]; Pseudomonas aeruginosa, read-out: Piperacillin MIC Alone, P. aeruginosa 28",> 512 µg/mL
same,MIC,"[3]; Pseudomonas aeruginosa, read-out: Piperacillin MIC Alone, P. aeruginosa 29",512 µg/mL
same,MIC,"[3]; Pseudomonas aeruginosa, read-out: Piperacillin MIC Alone, P. aeruginosa 32",64 µg/mL
same,MIC,"[3]; Pseudomonas aeruginosa, read-out: Piperacillin MIC Alone, P. aeruginosa 41",64 µg/mL
same,Piperacillin MIC Alone,[3]; S. aureus 19 MRSA,>128 µg/mL
same,Piperacillin MIC Alone,[3]; S. aureus SB3MRSA,128 µg/mL
same,MIC,[3]; [16],64 µg/mL
same,MIC,"[3]; Staphylococcus aureus, MRSA, read-out: Piperacillin MIC Alone, S. aureus 11 MRSA",> 128 µg/mL
same,MIC,"[3]; Staphylococcus aureus, MRSA, read-out: Piperacillin MIC Alone, S. aureus 18 MRSA",> 128 µg/mL
same,MIC,"[3]; Staphylococcus aureus, MRSA, read-out: Piperacillin MIC Alone, S. aureus 19 MRSA",128 µg/mL
same,MIC,"[3]; Staphylococcus aureus, read-out: Piperacillin MIC Alone, S. aureus SB2MRSA",128 µg/mL
same,MIC,"[3]; Staphylococcus aureus, read-out: Piperacillin MIC Alone, S. aureus SB3MRSA",> 128 µg/mL
same,MIC,[3]; [17],64 µg/mL
same,MIC,[3]; [18],128 µg/mL
same,MIC,"[3]; Stenotrophomonas maltophilia, read-out: Piperacillin MIC Alone, S. maltophilia 5",> 128 µg/mL
same,MIC,"[3]; Stenotrophomonas maltophilia, read-out: Piperacillin MIC Alone, S. maltophilia 6",> 128 µg/mL
same,MIC,"[3]; Stenotrophomonas maltophilia, read-out: Piperacillin MIC Alone, S. maltophilia 9",> 128 µg/mL
same,MIC,[3]; [19],> 128 µg/mL
same,MIC,"[3]; Stenotrophomonas maltophilia, read-out: Piperacillin MIC Alone, S. maltophilia 13",> 128 µg/mL
same,MIC,[3]; [20],128 µg/mL
same,MIC,[3]; [21],> 512 µg/mL
same,MIC,[3]; [22],> 256 µg/mL
same,MIC,"[3]; Stenotrophomonas maltophilia, read-out: Piperacillin MIC Alone, S. maltophilia 38",> 512 µg/mL
same,MIC,"[3]; Stenotrophomonas maltophilia, read-out: Piperacillin MIC Alone, S. maltophilia 40",> 512 µg/mL
same,MIC,"[3]; Stenotrophomonas maltophilia, read-out: Piperacillin MIC Alone, S. maltophilia 42",> 512 µg/mL
